Source: ChEMBL document CHEMBL4118135, “Optimized allosteric inhibition of engineered protein tyrosine phosphatases with an expanded palette of biarsenical small molecules” (Bioorg Med Chem, 2018)
Residue numbers refer to the chain shown, from its start. pIC50: −log10 of the molar value. Activity calls are given as the source filed them. The calls are words filed in the database; no cut-off is given here.

What was measured:
[1] = tested on: T1, Tyrosine-protein phosphatase non-receptor type 1 (Homo sapiens), P18031 [P87C,A122C]; assay: Inhibition of allosterically sensitized His6-tagged human PTP1B catalytic domain P87C/A122C mutant overexpressed in Escherichia coli BL21(DE3) cells using pNPP as substrate incubated for 90 mins by quenched phosphatase activity assay
T1 sequence (whole entry): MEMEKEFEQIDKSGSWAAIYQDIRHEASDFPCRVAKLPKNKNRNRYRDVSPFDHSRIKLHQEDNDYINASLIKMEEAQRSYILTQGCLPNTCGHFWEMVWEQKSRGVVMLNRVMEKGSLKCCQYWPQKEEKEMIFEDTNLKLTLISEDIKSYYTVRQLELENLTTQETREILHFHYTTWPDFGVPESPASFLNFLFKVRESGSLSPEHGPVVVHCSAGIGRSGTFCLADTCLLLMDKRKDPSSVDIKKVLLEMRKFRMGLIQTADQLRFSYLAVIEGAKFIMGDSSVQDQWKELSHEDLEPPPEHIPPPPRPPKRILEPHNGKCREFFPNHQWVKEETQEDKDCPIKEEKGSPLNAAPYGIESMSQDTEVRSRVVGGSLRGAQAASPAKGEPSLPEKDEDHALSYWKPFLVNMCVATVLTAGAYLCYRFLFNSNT

[2] = tested on: T1, Tyrosine-protein phosphatase non-receptor type 1 (Homo sapiens), P18031 [P87C,A122C]; assay: Inhibition of allosterically sensitized His6-tagged human PTP1B catalytic domain P87C/A122C mutant at 500 nM using DADEpYLIPQQG as substrate incubated for 90 mins by continuous phosphatase activity assay
[3] = target: T2, Tyrosine-protein phosphatase non-receptor type 1 (Homo sapiens, UniProt P18031, A122C/P87C); assay: Inhibition of allosterically sensitized His6-tagged human PTP1B catalytic domain P87C/A122C mutant overexpressed in Escherichia coli crude cell lysate using pNPP as substrate incubated for 90 mins by quenched phosphatase activity assay
[4] = target: T2, Tyrosine-protein phosphatase non-receptor type 1; assay: Inhibition of allosterically sensitized His6-tagged human PTP1B catalytic domain P87C/A122C mutant using pNPP as substrate incubated for 90 mins by quenched phosphatase activity assay
[5] = target: Tyrosine-protein phosphatase non-receptor type 6 (Homo sapiens) (UniProt P29350); assay: Inhibition of allosterically sensitized mutant form of His6-tagged human SHP1 catalytic domain using pNPP as substrate after 120 mins by quenched phosphatase activity assay
Sequence of Tyrosine-protein phosphatase non-receptor type 6 (Homo sapiens) (P29350 whole entry, the tested form may be a part): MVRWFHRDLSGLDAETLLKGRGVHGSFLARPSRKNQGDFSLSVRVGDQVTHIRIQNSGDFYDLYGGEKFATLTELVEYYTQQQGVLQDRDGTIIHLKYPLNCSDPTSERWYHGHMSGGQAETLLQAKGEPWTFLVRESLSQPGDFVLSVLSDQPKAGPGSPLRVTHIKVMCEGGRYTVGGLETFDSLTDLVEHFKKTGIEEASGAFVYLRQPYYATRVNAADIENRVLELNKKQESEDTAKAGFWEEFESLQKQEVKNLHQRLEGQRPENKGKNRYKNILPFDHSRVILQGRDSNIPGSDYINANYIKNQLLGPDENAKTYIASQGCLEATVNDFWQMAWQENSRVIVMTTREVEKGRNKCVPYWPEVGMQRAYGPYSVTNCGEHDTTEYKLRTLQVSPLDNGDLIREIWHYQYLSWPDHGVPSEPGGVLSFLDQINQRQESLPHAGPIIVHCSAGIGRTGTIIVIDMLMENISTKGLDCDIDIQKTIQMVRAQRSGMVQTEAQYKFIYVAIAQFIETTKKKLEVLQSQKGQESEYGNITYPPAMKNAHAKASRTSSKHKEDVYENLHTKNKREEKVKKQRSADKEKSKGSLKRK

[6] = target: T3, Tyrosine-protein phosphatase non-receptor type 1 (Homo sapiens) (UniProt P18031); assay: Inhibition of His6-tagged human wild-type PTP1B catalytic domain at 500 nM using DADEpYLIPQQG as substrate incubated for 90 mins by continuous phosphatase activity assay
T3 sequence (whole entry): T1 sequence (whole entry) with C87P, C122A

[7] = tested on: T1, Tyrosine-protein phosphatase non-receptor type 1 (Homo sapiens), P18031 [P87C,A122C]; assay: Binding affinity to allosterically sensitized His6-tagged human PTP1B catalytic domain P87C/A122C mutant overexpressed in Escherichia coli BL21(DE3) cells at 25 to 100 uM after 90 mins by SDS-PAGE and LC-MS/MS method
[8] = target: T3, Tyrosine-protein phosphatase non-receptor type 1 (Homo sapiens); assay: Inhibition of His6-tagged human wild-type PTP1B catalytic domain overexpressed in Escherichia coli BL21(DE3) cells at 100 uM using pNPP as substrate incubated for 90 mins by quenched phosphatase activity assay
[9] = target: T3, Tyrosine-protein phosphatase non-receptor type 1 (Homo sapiens); assay: Binding affinity to His6-tagged human wild-type PTP1B catalytic domain overexpressed in Escherichia coli BL21(DE3) cells at 100 uM using pNPP as substrate after 90 mins by SDS-PAGE analysis
[10] = tested on: T4, Tyrosine-protein phosphatase non-receptor type 7 (Homo sapiens), P35236 [P171C,V205C]; assay: Binding affinity to allosterically sensitized mutant form of His6-tagged human HePTP catalytic domain overexpressed in Escherichia coli BL21(DE3) cells at 50 to 100 uM after 90 mins by SDS-PAGE analysis
T4 sequence (whole entry): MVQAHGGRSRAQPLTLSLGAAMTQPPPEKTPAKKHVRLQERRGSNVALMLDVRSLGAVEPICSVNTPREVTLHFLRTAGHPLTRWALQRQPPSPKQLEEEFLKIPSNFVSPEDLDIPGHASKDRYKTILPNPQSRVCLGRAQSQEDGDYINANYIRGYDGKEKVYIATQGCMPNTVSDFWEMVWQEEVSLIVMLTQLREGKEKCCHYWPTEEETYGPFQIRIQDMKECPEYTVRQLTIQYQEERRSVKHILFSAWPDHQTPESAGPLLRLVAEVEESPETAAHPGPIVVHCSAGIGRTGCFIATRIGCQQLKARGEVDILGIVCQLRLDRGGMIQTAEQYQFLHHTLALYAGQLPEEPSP

[11] = tested on: T4, Tyrosine-protein phosphatase non-receptor type 7 (Homo sapiens), P35236 [P171C,V205C]; assay: Inhibition of allosterically sensitized mutant form of His6-tagged human HePTP catalytic domain using pNPP as substrate incubated for 90 mins by quenched phosphatase activity assay
[12] = tested on: T4, Tyrosine-protein phosphatase non-receptor type 7 (Homo sapiens), P35236 [P171C,V205C]; assay: Binding affinity to allosterically sensitized mutant form of His6-tagged human HePTP catalytic domain overexpressed in Escherichia coli crude cell lysate at 100 uM after 90 mins by SDS-PAGE analysis
[13] = tested on: Tyrosine-protein phosphatase non-receptor type 7 (Homo sapiens), P35236 [UNDEFINED MUTATION]; assay: Inhibition of Inhibition of allosterically sensitized mutant form of His6-tagged […] human HePTP catalytic domain overexpressed in Escherichia coli BL21(DE3) cells at 25 uM using pNPP as substrate incubated for 90 mins by quenched phosphatase activity assay
Sequence of Tyrosine-protein phosphatase non-receptor type 7 (Homo sapiens), P35236 [UNDEFINED MUTATION] (P35236 whole entry, looked up, stated change not applied, the tested form may be a part): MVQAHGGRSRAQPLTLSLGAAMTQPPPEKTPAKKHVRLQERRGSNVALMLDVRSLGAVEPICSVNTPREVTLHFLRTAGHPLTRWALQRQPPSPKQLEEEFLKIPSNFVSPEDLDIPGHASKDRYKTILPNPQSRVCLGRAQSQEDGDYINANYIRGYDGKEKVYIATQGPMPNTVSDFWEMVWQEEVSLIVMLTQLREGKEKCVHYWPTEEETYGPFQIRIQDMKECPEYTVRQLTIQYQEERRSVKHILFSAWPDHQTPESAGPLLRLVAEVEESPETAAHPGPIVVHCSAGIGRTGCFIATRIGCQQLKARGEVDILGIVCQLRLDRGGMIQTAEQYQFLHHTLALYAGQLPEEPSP

[14] = tested on: Tyrosine-protein phosphatase non-receptor type 7 (Homo sapiens), P35236 [UNDEFINED MUTATION]; assay: Inhibition of allosterically sensitized mutant form of His6-tagged human wild-type HePTP catalytic domain at 1.92 uM using pNPP as substrate incubated for 90 mins by quenched phosphatase activity assay
[15] = tested on: T4, Tyrosine-protein phosphatase non-receptor type 7 (Homo sapiens), P35236 [P171C,V205C]; assay: Inhibition of allosterically sensitized mutant form of His6-tagged human HePTP at 1000 nM using pNPP as substrate measured at 5 mins by quenched phosphatase activity assay
[16] = target: Tyrosine-protein phosphatase non-receptor type 7 (Homo sapiens, UniProt P35236, P171C/V205C); assay: Inhibition of allosterically sensitized mutant form of His6-tagged human HePTP catalytic domain overexpressed in Escherichia coli crude cell lysate using pNPP as substrate incubated for 90 mins by quenched phosphatase activity assay

## CC1(C)C(/C=C/C=C2/N(CCCCS(=O)(=O)O)c3ccc([As]4SCCS4)cc3C2(C)C)=[N+](CCCCS(=O)(=O)O)c2ccc([As]3SCCS3)cc21
[1]
  inhibition: Dose-dependent effect
[2]
  inhibition: Active
[3]
  pIC50: 6.90
[4]
  pIC50: 6.90
[5]
  inhibition: Dose-dependent effect
[6]
  inhibition: inactive
[7]
  Activity: Active
[8]
  inhibition: inactive
[9]
  Activity: inactive

## O=C(O)c1ccccc1-c1c2ccc(=O)c([As]3SCCS3)c-2oc2c([As]3SCCS3)c(O)ccc12
[10]
  Activity: Active
[11]
  inhibition: Dose-dependent effect
[12]
  Activity: inactive
[13]
  inhibition: Active
[14]
  inhibition: 50%
[15]
  inhibition: 70%
[16]
  pIC50: 6.60
